Data reported in patent US12304898B2, “Quinolyl-containing compound and pharmaceutical composition, and use thereof” (PrimeGene (Beijing) Co., Ltd., priority 2019, dated 2025).
pIC50: −log10 of the molar value.

Experiments:
HDAC6 = HDAC6 (Homo sapiens (Human), UniProt Q9UBN7); assay: HDAC6 fluorescence analysis, inhibition of HDAC6 activity; assay type: biochemical; details: HDAC6 0.3 nM solution, substrate 15 μM, fluorescence readout; read-out: IC50, inhibitory effect on HDAC6
Experimental: HDAC6 fluorescence analysis method was used to detect the inhibitory effect of the compounds on the activity of HDAC6. The specific operation is as follows:
Prepare a 10 mM stock solution of a compound with DMSO. Take 10 μl of stock solution and dilute with 90 μl DMSO to become a 1 mM working solution. […] Add 3 μl of each concentration to 197 μl reaction buffer (20 mM Hepes pH 8.0, 137 mM NaCl, 2.7 mM KCl, 1 mM MgCl2, 0.05% BSA, 0.5 mM TCEP), mix well and add 10 μl to a 384-well plate. In the final reaction system, the concentrations of the compound were 10 μM to 0.51 nM. Duplicate, and add 10 μl 3XHDAC solution (BPS, Cat. 50006, 0.3 nM) to each well, followed by incubating at 23° C. for 20 minutes. Then, add 3× substrate solution (Anaspec, Cat. 61855, 15 μM), centrifuge to mix, and incubate at 23° C. for 90 minutes. Add 30 μl trypsin/SAHA mixture (20 mM Hepes pH 8.0, 100 mM NaCl, 10 mM SAHA, 0.01 mg/ml trypsin), incubate at 23° C. for 60 minutes to terminate the reaction. Finally, read fluorescence data by Envision (390 nm excitation, 460 nm emission). […] Finally, analyze the data by XLfit5 software and calculate the IC50 value of the compound. Vorinostat (SAHA) was a positive reference compound.

VEGFR2 (KDR) = VEGFR2 (KDR) (Homo sapiens (Human), UniProt P35968); assay: VEGFR2 (KDR) mobility shift assay; assay type: biochemical; details: VEGFR2 0.5 nM, ATP 95 μM, read-out: IC50, inhibitory effect on kinase VEGFR2
Sequence of VEGFR2 (KDR) (P35968 790-1356): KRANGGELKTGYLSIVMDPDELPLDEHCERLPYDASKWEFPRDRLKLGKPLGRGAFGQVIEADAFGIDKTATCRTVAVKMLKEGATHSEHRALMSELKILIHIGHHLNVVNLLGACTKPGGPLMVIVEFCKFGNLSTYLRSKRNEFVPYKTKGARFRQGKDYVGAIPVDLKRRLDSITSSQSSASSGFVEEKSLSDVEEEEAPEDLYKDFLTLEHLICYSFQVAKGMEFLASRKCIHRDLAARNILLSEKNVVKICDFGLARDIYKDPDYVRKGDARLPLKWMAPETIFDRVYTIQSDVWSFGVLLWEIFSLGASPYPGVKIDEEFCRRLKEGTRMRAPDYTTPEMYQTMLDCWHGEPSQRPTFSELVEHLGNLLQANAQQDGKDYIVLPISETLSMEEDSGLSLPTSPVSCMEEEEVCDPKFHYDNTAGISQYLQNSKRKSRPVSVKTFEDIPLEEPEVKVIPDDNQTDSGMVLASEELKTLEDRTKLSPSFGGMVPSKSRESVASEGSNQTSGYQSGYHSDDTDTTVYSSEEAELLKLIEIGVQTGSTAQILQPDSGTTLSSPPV
Experimental: Detect compounds on VEGFR2 (KDR) by mobility shift assay. The initial test concentration of a compound was 1000 nM, 3 times dilution, 10 concentrations, and detection in duplicate. Nintedanib (Selleckchem, Cat. S1010) was used as the positive control compound. The operation method was briefly described as follows: kinase VEGFR2 (Carna, Cat. 08-191) at the final concentration of 0.5 nM and the test compound were mixed in the Optiplate-384F well plate and incubated for 10 minutes at room temperature. Then, ATP at a final concentration of 95 μM and 3 μM Kinase substrate 22 (Gill Biochemical (glbiochem), Cat. 112393) were added. After mixing, react at room temperature for 30 minutes. Add stop detection solution to terminate the reaction and read the conversion rate with Caliper EZ ReaderlI.
Wherein, Conversion %_sample refers to the conversion rate reading of the sample; Conversion %_min: the average value of the negative control wells, which represents the conversion rate readings of the wells without enzyme activity; Conversion %_max: the average value of the positive control wells, represents the conversion rate readings of the wells without compound inhibition.
Fitting the dose-response curve: Take the log of the concentration as the X-axis, and the percentage of inhibition rate as the Y-axis. The dose response curve was fitted by the analysis software GraphPad Prism 5 with log(inhibitor) vs. response—Variable slope to obtain the inhibitory activity (IC50) of each compound.

[1] = Pharmacokinetic experiment in rats after intragastric administration; assay type: in vivo; details: rat, po, female SD rats, 10 mg/kg, plasma
Experimental: The female SD rats were divided into groups, 3 rats in each group, and the example compounds 10, 12, 24, 57, 61, 89, 90, 93, 94, 96 (10 mg/kg) were administered by intragastric administration. Fasting overnight before administration, and the fasting time was from 10 hours before administration to 4 hours after administration. Blood was collected at 0.25, 0.5, 1, 2, 4, 8 and 24 hours after administration. Small animal anesthesia machine was used for isoflurane anesthesia. After that, 0.3 mL of whole blood was collected from the fundus venous plexus and placed in a heparin anticoagulation tube. The sample was centrifuged at 4° C., 4000 rpm, for 5 minutes, and the plasma was transferred to a centrifuge tube, and stored at −80° C. until analysis. The plasma sample was extracted by protein precipitation method, and the extract was processed and analyzed by LC/MS/MS.

Sequence of HDAC6 (Q9UBN7 whole entry): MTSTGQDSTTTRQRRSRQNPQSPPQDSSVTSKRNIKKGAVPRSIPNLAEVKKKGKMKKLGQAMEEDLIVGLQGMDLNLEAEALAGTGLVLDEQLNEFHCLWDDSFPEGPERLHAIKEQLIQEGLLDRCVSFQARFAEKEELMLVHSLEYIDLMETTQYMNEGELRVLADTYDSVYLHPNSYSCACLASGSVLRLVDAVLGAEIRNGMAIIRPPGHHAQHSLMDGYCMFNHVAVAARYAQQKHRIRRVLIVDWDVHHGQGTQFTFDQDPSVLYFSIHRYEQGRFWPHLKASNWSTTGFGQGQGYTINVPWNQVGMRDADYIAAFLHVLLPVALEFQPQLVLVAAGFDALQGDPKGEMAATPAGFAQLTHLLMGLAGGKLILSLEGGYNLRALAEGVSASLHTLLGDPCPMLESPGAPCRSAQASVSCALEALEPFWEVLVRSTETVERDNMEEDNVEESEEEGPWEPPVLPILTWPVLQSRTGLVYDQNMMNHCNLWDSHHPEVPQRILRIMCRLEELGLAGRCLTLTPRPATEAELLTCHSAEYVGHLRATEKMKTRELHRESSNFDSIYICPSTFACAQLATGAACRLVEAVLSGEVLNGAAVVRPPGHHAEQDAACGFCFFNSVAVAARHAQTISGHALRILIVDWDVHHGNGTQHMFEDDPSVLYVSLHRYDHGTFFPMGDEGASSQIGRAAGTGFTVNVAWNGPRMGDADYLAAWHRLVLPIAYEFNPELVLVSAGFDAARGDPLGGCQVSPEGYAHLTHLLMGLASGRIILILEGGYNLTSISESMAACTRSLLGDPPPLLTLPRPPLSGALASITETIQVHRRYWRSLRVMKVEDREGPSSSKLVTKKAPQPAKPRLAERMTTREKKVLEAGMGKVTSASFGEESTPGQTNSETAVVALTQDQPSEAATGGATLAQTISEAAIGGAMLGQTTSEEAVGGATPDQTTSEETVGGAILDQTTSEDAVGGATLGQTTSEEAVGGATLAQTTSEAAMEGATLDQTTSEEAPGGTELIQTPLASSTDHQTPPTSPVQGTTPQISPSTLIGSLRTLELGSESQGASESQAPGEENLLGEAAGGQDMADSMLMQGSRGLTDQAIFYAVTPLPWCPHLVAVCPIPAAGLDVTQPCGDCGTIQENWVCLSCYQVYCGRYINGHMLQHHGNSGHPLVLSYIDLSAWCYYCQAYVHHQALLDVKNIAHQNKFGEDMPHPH

Compound | pIC50 (HDAC6) | pIC50 (VEGFR2 (KDR)) | further results
COc1cc2nccc(Oc3ccc(NC(=O)C4(C(=O)Nc5ccc(F)cc5)CC4)cc3)c2cc1OC [Cabozantinib, reference compound] | < 5.00 |  | 
COc1cc2c(Oc3ccc(NC(=O)C4(C(=O)Nc5ccc(F)cc5)CC4)cc3F)ccnc2cc1OCCCCS [Example 7, N-(3-fluoro-4-((7-(4-mercaptobutoxy)-6-methoxyquinolin-4-yl)oxy)phenyl)-N-(4-fluorophenyl) cyclopropane-1,1-diformamide] |  | 7.24 | 
COc1cc2c(Oc3ccc(NC(=O)C4(C(=O)Nc5ccc(F)cc5)CC4)cc3F)ccnc2cc1OC/C=C/CCCCS [Example 25, (E)-N-(3-fluoro-4-((7-((7-mercaptoheptyl-2-en-1-yl)oxy)-6-methoxyquinolin-4-yl)oxy)phenyl)-N-(4-fluorophenyl)cyclopropane-1,1-diformamide] | 7.46 | 7.10 | 
COc1cc2c(Oc3ccc(NC(=O)C4(C(=O)Nc5ccc(F)cc5)CC4)cc3F)ccnc2cc1OC/C=C/CCCS [Example 27, (E)-N-(3-fluoro-4-((7-((6-mercaptohexyl-2-en-1-yl)oxy)-6-methoxyquinolin-4-yl)oxy)phenyl)-N-(4-fluorophenyl)cyclopropane-1,1-dimethylamid] |  | 7.48 | 
COc1cc2c(Oc3ccc(NC(=O)C4(C(=O)Nc5ccc(F)cc5)CC4)cc3F)ccnc2cc1OCCCSc1nnc(S)s1 [Example 54, N-(3-fluoro-4-((7-(3-((5-thio-1,3,4-trithiazol-2-yl)sulfanyl)propoxy)-6-methoxyquinolin-4-yl)oxy)phenyl)-N-(4-fluorophenyl)cyclopropane-1,1-diformamide] |  | 7.27 | 
CC(=O)SCC(=O)NCCCCCOc1cc2nccc(Oc3ccc(NC(=O)NC4CC4)c(Cl)c3)c2cc1C(N)=O [Example 69, S-(2-((5-((6-carbamoyl-4-(3-chloro-4-(3-cyclopropylurea)phenoxy)quinolin-7-yl)oxy)pentyl)amino)-2-oxo-ethyl)thioacetate] | 8.05 | 9.02 | 
CC(=O)SCCCCCCOc1cc2nccc(Oc3ccc(NC(=O)NC4CC4)c(Cl)c3)c2cc1C(N)=O [Example 86, S-(7-((6-carbamoyl-4-(3-chloro-4-(3-cyclopropylurea)phenoxy)quinolin-7-yl)oxy)hexyl)thioacetate] |  | 8.59 | 

More lines, main results first:

pIC50 (HDAC6) | pIC50 (VEGFR2 (KDR)) | Compound | further results
 | 7.10 | COc1cc2c(Oc3ccc(NC(=O)C4(C(=O)Nc5ccc(F)cc5)CC4)cc3F)ccnc2cc1OCCCCSC(C)=O [Example 6, S-(4-((4-(2-Fluoro-4-(1-((4-fluorophenyl)aminoformyl)cyclopropane-1-carboxamido)phenoxy)-6-methoxyquinolin-7-yl)oxy)butyl)-acetylthioester] | 
7.17 |  | COc1cc2c(Oc3ccc(NC(=O)C4(C(=O)Nc5ccc(F)cc5)CC4)cc3F)ccnc2cc1OCCCCCCCSC(C)=O [Example 12, S-(7-((4-(2-fluoro-4-(1-((4-fluorophenyl)aminoformyl)cyclopropane-1-carboxamido)phenoxy)-6-methoxyquinolin-7-yl)oxy)heptyl)-acetylthioester] | AUC(0-inf) [1]: 1870 ng·h/mL; Cmax [1]: 946 ng/mL; Tmax [1]: 1 h; half-life [1]: 3 h
7.74 |  | COc1cc2c(Oc3ccc(NC(=O)C4(C(=O)Nc5ccc(F)cc5)CC4)cc3F)ccnc2cc1OCCCCCCCS [Example 13, N-(3-fluoro-4-((7-(7-mercaptoheptyloxy)-6-methoxyquinolin-4-yl)oxy)phenyl)-N-(4-fluorophenyl) cyclopropane-1,1-diformamide] | 
 | 7.52 | COc1cc2c(Oc3ccc(NC(=O)C4(C(=O)Nc5ccc(F)cc5)CC4)cc3F)ccnc2cc1OCCNC(=O)NCCSC(C)=O [Example 55] | 
7.79 | 7.77 | COc1cc2c(Oc3ccc(NC(=O)C4(C(=O)Nc5ccc(F)cc5)CC4)cc3F)ccnc2cc1OCCCCNC(=O)CS [Example 62] | 
7.54 | 7.29 | COc1cc2c(Oc3ccc(NC(=O)C4(C(=O)Nc5ccc(F)cc5)CC4)cc3F)ccnc2cc1OCCCCCCNC(=O)CS [Example 64] | 
 | 7.89 | COc1cc2c(Oc3ccc(NC(=O)C4(C(=O)Nc5ccc(F)cc5)CC4)cc3)ccnc2cc1OCCCCCNC(=O)CSC(C)=O [Example 65] | 
7.57 | 8.34 | CC(=O)SCC(=O)NCCCCCOc1cc2nccc(Oc3ccc(NC(=O)C4(C(=O)Nc5ccc(F)cc5)CC4)cc3F)c2cc1C(N)=O [Example 71, S-(2-((5-((6-carbamoyl-4-(2-fluoro-4-(1-((4-fluorophenyl)carbamoyl)cyclopropane-1-methylamido)phenoxy)quinolin-7-yl)oxy)pentyl)amino)-2-oxo-ethyl)thioacetate] | 
